Laboratory results taken from patent US11135209B2, “Compositions and methods for inhibiting protein kinases” (UNIVERSITY OF HOUSTON SYSTEM, priority 2017, dated 2021).

What was measured:
[1] = molecular target: Recombinant RIPK2 protein (Homo sapiens, UniProt O43353); assay: Receptor Interacting Protein Kinase 2 (RIPK2) enzyme assay (ADP-Glo); format: biochemical; settings: for inhibition at 0.5 µM: Conc. 500 nM
Description: Receptor Interacting Protein Kinase 2 (RIPK2) Enzyme Assay
Recombinant RIPK2 protein (20 ng per reaction) is diluted in the reaction buffer consisting of 40 mM Tris (pH 7.5); 20 mM MgCl2; 0.1 mg/ml BSA; 50 μM DTT. Diluted protein is added to low volume white 384 well plates (2 μL/well). Inhibitors are diluted in reaction buffer (final 25% DMSO), 1 μL is added to each well and incubated 5 min at room temperature. Reactions are initiated by the addition of 2 μL of 100 μM ATP and 1 mg/ml RS repeat peptide (SignalChem) in the reaction buffer. Plates are sealed with plastic coverslips and incubated at room temperature for 2 h. Reactions are stopped by the addition of 5 μL of ADP-Glo reagent (Promega) and ADP generation reaction is performed for 40 min at room temperature. Luminescence signal is generated by the addition of 10 μL of Kinase detection reagent (Promega) for 30 min at room temperature Luminescence signals are determined using appropriate luminescence plate-reader (typical integration time 0.3-1 sec). To calculate percent inhibition, average background signal is subtracted from test well and maximal signal wells. Inhibition, %=(1−(test signal/maximal signal))*100. The percent inhibition at a specified concentration is determined or IC50 values are calculated based on a dose range of inhibitor concentrations using non-linear regression in GraphPad Prism software.

human ALK2 = molecular target: T1, human ALK2 (Homo sapiens, UniProt Q04771); assay: Activin-Like Kinase 2 (ALK2) enzyme assay; format: biochemical
T1 sequence (Q04771 21-509): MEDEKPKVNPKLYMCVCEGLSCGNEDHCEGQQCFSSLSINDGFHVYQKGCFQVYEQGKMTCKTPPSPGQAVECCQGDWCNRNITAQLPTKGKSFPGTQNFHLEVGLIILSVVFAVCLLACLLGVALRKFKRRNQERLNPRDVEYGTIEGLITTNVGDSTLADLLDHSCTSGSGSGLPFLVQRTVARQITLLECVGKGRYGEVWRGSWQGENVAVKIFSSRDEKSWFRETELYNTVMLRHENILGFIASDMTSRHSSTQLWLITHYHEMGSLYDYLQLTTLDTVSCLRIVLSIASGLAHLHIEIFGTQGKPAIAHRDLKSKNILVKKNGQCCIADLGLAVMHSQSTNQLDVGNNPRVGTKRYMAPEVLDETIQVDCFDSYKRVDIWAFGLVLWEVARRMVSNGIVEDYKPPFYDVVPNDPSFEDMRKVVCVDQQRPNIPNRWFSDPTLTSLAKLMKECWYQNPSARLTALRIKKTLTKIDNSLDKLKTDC
Description: Activin-Like Kinase 2 (ALK2) Enzyme Assay
Enzyme inhibitory activity was evaluated in a standard kinase enzyme assay by incubating human ALK2 with the protein substrate casein (1 mg/mL) and γ-^33ATP (10 μM) in the presence of various concentrations of test compounds (10 nM-100 μM). After 30 min the amount of ^33P-casein was determined.

[2] = tested on: NOD2 cellular signaling in HEK-Blue cells expressing human NOD2; assay: NOD2 cell signaling assay (HEK-Blue, NFkB-SEAP reporter, L18-MDP stimulated); format: cell-based; settings: read-out: IC50 (nM) HEKBlue RIPK2
Description: NOD2 Cell Signaling Assay.
HEK-Blue cells expressing human NOD2 and NFkB-SAEP reporter (Invivogen) are seeded into 96 well clear plates at 7.5×10^3 cells per well in 100 μL of DMEM media supplemented with 10% FBS and 1% antibiotic-antimycotic mix. Cells are allowed to attach for 48 h in 5% CO2 tissue culture incubator at 37° C. On the morning of the experiment, media in the wells is replaced with 100 pt of HEK-Blue detection media (Invivogen). Cells are treated with the inhibitors, diluted in DMSO (0.5 μL per well) for 15 min in 5% CO2 tissue culture incubator at 37° C. After that, cells are stimulated by the addition of 1 ng/well L18-MDP (Invivogen). Cells are incubated in 5% CO2 tissue culture incubator at 37° C. for 8 h and absorbance, corresponding to the SEAP in the media, is determined in Wallac3V plate reader (Perkin Elmer). Inhibition, %=(1−((sample signal-unstimulated and DMSO treated cells)/(L18-MDP stimulated and DMSO treated cells−unstimulated and DMSO treated cells)))*100. IC50 values are calculated based on a dose range of inhibitor concentrations using non-linear regression in GraphPad Prism software.

Chain of Recombinant RIPK2 protein (O43353 whole entry, species assumed): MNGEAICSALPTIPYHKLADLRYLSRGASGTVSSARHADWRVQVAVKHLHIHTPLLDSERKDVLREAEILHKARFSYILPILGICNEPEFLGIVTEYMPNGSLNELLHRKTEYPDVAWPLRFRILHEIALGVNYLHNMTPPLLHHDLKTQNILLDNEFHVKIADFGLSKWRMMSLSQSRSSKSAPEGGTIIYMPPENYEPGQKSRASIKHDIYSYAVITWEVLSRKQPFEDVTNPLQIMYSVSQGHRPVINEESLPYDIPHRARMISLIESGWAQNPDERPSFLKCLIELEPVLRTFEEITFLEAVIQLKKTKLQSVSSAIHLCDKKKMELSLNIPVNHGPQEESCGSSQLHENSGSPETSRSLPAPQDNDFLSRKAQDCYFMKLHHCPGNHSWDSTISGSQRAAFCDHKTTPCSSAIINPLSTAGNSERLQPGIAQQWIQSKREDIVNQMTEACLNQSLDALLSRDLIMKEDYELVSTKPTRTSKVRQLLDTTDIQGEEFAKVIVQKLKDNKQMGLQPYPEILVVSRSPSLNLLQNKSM

SMILES | inhibition at 0.5 µM [1] [%] | IC50 (human ALK2) [nM] | IC50 [1] [nM] | inhibition at 0.25 µM ([1]; Conc. 250 nM) [%] | IC50 [2] [nM]
CCCS(=O)(=O)Nc1ccc(-c2cc(-c3ccc(N4CCNCC4)cc3)cnc2C)cc1OC [CSLP1, N-(2-methoxy-4-(2-methyl-5-(4-(piperazin-1-yl)phenyl)pyridin-3-yl)phenyl)propane-1-sulfonamide] | < 0 | > 100000 |  |  | > 1000
COc1cc(NS(C)(=O)=O)cc(-c2cc(-c3ccc(N4CCNCC4)cc3)cnc2C)c1 [CSLP2, N-(3-Methoxy-5-(2-methyl-5-(4-(piperazin-1-yl)phenyl)pyridin-3-yl)phenyl)methanesulfonamide] |  | > 10 | > 100 | 39 | > 1000
COc1cc(NS(=O)(=O)C2CC2)cc(-c2cc(-c3ccc(N4CCNCC4)cc3)cnc2C)c1 [CSLP9, N-(3-Methoxy-5-(2-methyl-5-(4-(piperazin-1-yl)phenyl)pyridin-3-yl)phenyl)cyclopropanesulfonamide] | 76 |  |  |  | > 1000
CCCS(=O)(=O)Nc1cc(OC)cc(-c2cc(-c3ccc(N4CCNCC4)cc3)cnc2C)c1 [CSLP10, N-(3-Methoxy-5-(2-methyl-5-(4-(piperazin-1-yl)phenyl)pyridin-3-yl)phenyl)propane-1-sulfonamide] | 84 | > 10 | > 100 |  | > 1000
CCS(=O)(=O)Nc1cc(OC)cc(-c2cc(-c3ccc(N4CCNCC4)cc3)cnc2Cl)c1 [CSLP14] | 86 | > 10 | > 100 |  | > 1000
CCS(=O)(=O)Nc1cc(OC)cc(-c2cc(-c3ccc(N4CCNCC4)cc3)cnc2C)c1 [CSLP15, N-(3-Methoxy-5-(2-methyl-5-(4-(piperazin-1-yl)phenyl)pyridin-3-yl)phenyl)ethanesulfonamide] | 73 | > 10 | > 100 |  | > 1000
CCCS(=O)(=O)Nc1cc(-c2cc(-c3ccc(N4CCNCC4)cc3)cnc2N)ccc1OC [CSLP18] |  | > 1000 | > 10 |  | > 100
CCCS(=O)(=O)Nc1cc(-c2cc(-c3ccc(N4CCNCC4)cc3)cnc2N)cc(OC)c1C [CSLP19, N-(5-(2-Amino-5-(4-(piperazin-1-yl)phenyl)pyridin-3-yl)-3-methoxy-2-methylphenyl)propane-1-sulfonamide] |  | > 100 | > 1000 |  | > 1000
COc1cc(-c2cc(-c3ccc(N4CCNCC4)cc3)cnc2N)cc(NS(C)(=O)=O)c1C [CSLP21, N-(5-(2-Amino-5-(4-(piperazin-1-yl)phenyl)pyridin-3-yl)-3-methoxy-2-methylphenyl)methanesulfonamide] |  | > 100 | > 1000 |  | > 1000
COc1cc(NS(=O)(=O)Cc2ccccc2)cc(-c2cc(-c3ccc(N4CCNCC4)cc3)cnc2N)c1 [CSLP24, N-(3-(2-Amino-5-(4-(piperazin-1-yl)phenyl)pyridin-3-yl)-5-methoxyphenyl)-1-phenylmethanesulfonamide] |  | > 1 | > 100 |  | > 100
COc1cc(-c2cc(-c3ccc(N4CCNCC4)cc3)cnc2N)cc(NS(=O)(=O)C(C)C)c1C [CSLP25, N-(5-(2-Amino-5-(4-(piperazin-1-yl)phenyl)pyridin-3-yl)-3-methoxy-2-methylphenyl)propane-2-sulfonamide] |  | > 1000 | > 1000 |  | > 1000
CCCS(=O)(=O)Nc1cc(-c2cc(-c3ccc(N4CCNCC4)cc3)cnc2N)ccc1C [CSLP26, N-(5-(2-Amino-5-(4-(piperazin-1-yl)phenyl)pyridin-3-yl)-2-methylphenyl)propane-1-sulfonamide] |  | > 1000 | > 100 |  | > 1000
COc1ccc(-c2cc(-c3ccc(N4CCNCC4)cc3)cnc2N)cc1NS(=O)(=O)C(C)C [CSLP28, N-(5-(2-Amino-5-(4-(piperazin-1-yl)phenyl)pyridin-3-yl)-2-methoxyphenyl)propane-2-sulfonamide] |  | > 1000 | > 10 |  | > 100
CC(C)Oc1cc(NS(=O)(=O)C(C)C)cc(-c2cc(-c3ccc(N4CCNCC4)cc3)cnc2N)c1 [CSLP29, N-(3-(2-Amino-5-(4-(piperazin-1-yl)phenyl)pyridin-3-yl)-5-isopropoxyphenyl)propane-2-sulfonamide] |  | > 100000 | > 100 |  | > 100
CCCS(=O)(=O)Nc1cc(-c2cc(-c3cccc(S(C)(=O)=O)c3)cnc2N)ccc1OC [CSLP30] |  | > 10000 | > 100 |  | > 1000

Second part, led by results:

inhibition at 0.5 µM [1] [%] | IC50 (human ALK2) [nM] | IC50 [1] [nM] | inhibition at 0.25 µM ([1]; Conc. 250 nM) [%] | SMILES | IC50 [2] [nM]
 | > 1 | > 10 |  | COc1cc(NS(C)(=O)=O)cc(-c2cc(-c3ccc(N4CCNCC4)cc3)cnc2N)c1 [CSLP3] | > 100
 | > 1 | > 10 |  | CCCS(=O)(=O)Nc1cc(OC)cc(-c2cc(-c3ccc(N4CCNCC4)cc3)cnc2N)c1 [CSLP6] | > 100
 |  | > 10 |  | CCS(=O)(=O)Nc1cc(OC)cc(-c2cc(-c3ccc(N4CCNCC4)cc3)cnc2N)c1 [CSLP7] | > 100
 | > 1 | > 10 |  | COc1cc(NS(=O)(=O)C(C)C)cc(-c2cc(-c3ccc(N4CCNCC4)cc3)cnc2N)c1 [CSLP8] | > 100
 |  | > 10 |  | COc1cc(NS(=O)(=O)C2CC2)cc(-c2cc(-c3ccc(N4CCNCC4)cc3)cnc2N)c1 [CSLP11, N-(3-(2-Amino-5-(4-(piperazin-1-yl)phenyl)pyridin-3-yl)-5-methoxyphenyl)cyclopropanesulfonamide] | > 100
 | > 1 | > 10 |  | COc1cc(NS(=O)(=O)CC(C)C)cc(-c2cc(-c3ccc(N4CCNCC4)cc3)cnc2N)c1 [CSLP12, N-(3-(2-Amino-5-(4-(piperazin-1-yl)phenyl)pyridin-3-yl)-5-methoxyphenyl)-2-methylpropane-1-sulfonamide] | > 100
85 | > 100 | > 10 |  | COc1cc(NS(=O)(=O)C(C)C)cc(-c2cc(-c3ccc(N4CCNCC4)cc3)cnc2C)c1 [CSLP16, N-(3-Methoxy-5-(2-methyl-5-(4-(piperazin-1-yl)phenyl)pyridin-3-yl)phenyl)propane-2-sulfonamide] | > 100
86 | > 10 | > 10 |  | COc1cc(NS(=O)(=O)CC(C)C)cc(-c2cc(-c3ccc(N4CCNCC4)cc3)cnc2C)c1 [CSLP17, N-(3-Methoxy-5-(2-methyl-5-(4-(piperazin-1-yl)phenyl)pyridin-3-yl)phenyl)-2-methylpropane-1-sulfonamide] | > 1000
 | > 1 | > 1 |  | COc1cc(NS(=O)(=O)c2ccccc2)cc(-c2cc(-c3ccc(N4CCNCC4)cc3)cnc2N)c1 [CSLP20, N-(3-(2-Amino-5-(4-(piperazin-1-yl)phenyl)pyridin-3-yl)-5-methoxyphenyl)benzenesulfonamide] | > 10
 | > 100 | > 10 |  | CCOc1cc(NS(=O)(=O)C(C)C)cc(-c2cc(-c3ccc(N4CCNCC4)cc3)cnc2N)c1 [CSLP22, N-(3-(2-Amino-5-(4-(piperazin-1-yl)phenyl)pyridin-3-yl)-5-ethoxyphenyl)propane-2-sulfonamide] | > 10
